ChEMBL document CHEMBL1151939, “Potential scorpionate antibiotics: targeted hydrolysis of lipid II containing model membranes by vancomycin-TACzyme conjugates and modulation of their antibacterial activity by Zn-ions” (2009)
In brackets after ≈: the same amount, converted by molar mass. Activity calls are given as the source filed them. The calls are words filed in the database; no cut-off is given here.

Assays:
Type in all cases: functional
Enterococcus [1] = test: Antimicrobial activity against vancomycin-susceptible Enterococcus 15A797 by broth microdilution method
Enterococcus [2] = test: Antimicrobial activity against vancomycin-resistant Enterococcus 15A799 by broth microdilution method
Enterococcus [3] = test: Antimicrobial activity against vancomycin-susceptible Enterococcus 15A797 by broth microdilution method in presence of ZnSo4 in medium
Enterococcus [4] = test: Antimicrobial activity against vancomycin-resistant Enterococcus 15A799 by broth microdilution method in presence of ZnSo4 in medium

| SMILES | MIC (Enterococcus [1]) [µM] | MIC (Enterococcus [2]) | MIC (Enterococcus [3]) | MIC (Enterococcus [4]) |
| --- | --- | --- | --- | --- |
| CN[C@H](CC(C)C)C(=O)N[C@H]1C(=O)N[C@@H](CC(N)=O)C(=O)N[C@H]2C(=O)N[C@H]3C(=O)N[C@H](C(=O)N[C@H](C(=O)NCCCOCCOCCOCCNC(=O)c4cc(OCCNC(=O)c5cc(OCc6cn(CCCNC(=O)CC[C@H](NC(=O)c7cc8cc(c7)CN(C(=O)[C@@H](Cc7c[nH]cn7)NC(C)=O)CCCN(C(=O)[C@H](Cc7c[nH]cn7)NC(C)=O)CCCN(C(=O)[C@H](Cc7c[nH]cn7)NC(C)=O)C8)C(N)=O)nn6)cc(OCc6cn(CCCNC(=O)CC[C@H](NC(=O)c7cc8cc(c7)CN(C(=O)[C@@H](Cc7c[nH]cn7)NC(C)=O)CCCN(C(=O)[C@H](Cc7c[nH]cn7)NC(C)=O)CCCN(C(=O)[C@H](Cc7c[nH]cn7)NC(C)=O)C8)C(N)=O)nn6)c5)cc(OCCNC(=O)c5cc(OCc6cn(CCCNC(=O)CC[C@H](NC(=O)c7cc8cc(c7)CN(C(=O)[C@@H](Cc7c[nH]cn7)NC(C)=O)CCCN(C(=O)[C@H](Cc7c[nH]cn7)NC(C)=O)CCCN(C(=O)[C@H](Cc7c[nH]cn7)NC(C)=O)C8)C(N)=O)nn6)cc(OCc6cn(CCCNC(=O)CC[C@H](NC(=O)c7cc8cc(c7)CN(C(=O)[C@@H](Cc7c[nH]cn7)NC(C)=O)CCCN(C(=O)[C@H](Cc7c[nH]cn7)NC(C)=O)CCCN(C(=O)[C@H](Cc7c[nH]cn7)NC(C)=O)C8)C(N)=O)nn6)c5)c4)c4cc(O)cc(O)c4-c4cc3ccc4O)[C@H](O)c3ccc(c(Cl)c3)Oc3cc2cc(c3O[C@@H]2O[C@H](CO)[C@@H](O)[C@H](O)[C@H]2O[C@H]2C[C@](C)(N)[C@H](O)[C@H](C)O2)Oc2ccc(cc2Cl)[C@H]1O | 40 (≈ 255 µg/mL) | inactive | 5 µM | inactive |
| C#CCCC(=O)NCCCOCCOCCOCCCNC(=O)[C@H]1NC(=O)[C@H]2NC(=O)[C@H](NC(=O)[C@@H]3NC(=O)[C@H](CC(N)=O)NC(=O)[C@H](NC(=O)[C@@H](CC(C)C)NC)[C@H](O)c4ccc(c(Cl)c4)Oc4cc3cc(c4O[C@@H]3O[C@H](CO)[C@@H](O)[C@H](O)[C@H]3O[C@H]3C[C@](C)(N)[C@H](O)[C@H](C)O3)Oc3ccc(cc3Cl)[C@H]2O)c2ccc(O)c(c2)-c2c(O)cc(O)cc21 | 1 (≈ 1.73 µg/mL) | inactive |  |  |
| CC(=O)N[C@@H](Cc1c[nH]cn1)C(=O)N1CCCN(C(=O)[C@H](Cc2c[nH]cn2)NC(C)=O)Cc2cc(cc(C(=O)N[C@@H](CCC(=O)NCCCN=[N+]=[N-])C(N)=O)c2)CN(C(=O)[C@@H](Cc2c[nH]cn2)NC(C)=O)CCC1 |  |  | inactive | inactive |
| CN[C@H](CC(C)C)C(=O)N[C@H]1C(=O)N[C@@H](CC(N)=O)C(=O)N[C@H]2C(=O)N[C@H]3C(=O)N[C@H](C(=O)N[C@H](C(=O)O)c4cc(O)cc(O)c4-c4cc3ccc4O)[C@H](O)c3ccc(c(Cl)c3)Oc3cc2cc(c3O[C@@H]2O[C@H](CO)[C@@H](O)[C@H](O)[C@H]2O[C@H]2C[C@](C)(N)[C@H](O)[C@H](C)O2)Oc2ccc(cc2Cl)[C@H]1O [VANCOMYCIN] | 0.3 (≈ 0.435 µg/mL) | 86 µM (≈ 125 µg/mL) |  |  |
| CN[C@H](CC(C)C)C(=O)N[C@H]1C(=O)N[C@@H](CC(N)=O)C(=O)N[C@H]2C(=O)N[C@H]3C(=O)N[C@H](C(=O)N[C@H](C(=O)NCCCOCCOCCOCCCNC(=O)CCc4cn(CCCNC(=O)CC[C@H](NC(=O)c5cc6cc(c5)CN(C(=O)[C@@H](Cc5c[nH]cn5)NC(C)=O)CCCN(C(=O)[C@H](Cc5c[nH]cn5)NC(C)=O)CCCN(C(=O)[C@H](Cc5c[nH]cn5)NC(C)=O)C6)C(N)=O)nn4)c4cc(O)cc(O)c4-c4cc3ccc4O)[C@H](O)c3ccc(c(Cl)c3)Oc3cc2cc(c3O[C@@H]2O[C@H](CO)[C@@H](O)[C@H](O)[C@H]2O[C@H]2C[C@](C)(N)[C@H](O)[C@H](C)O2)Oc2ccc(cc2Cl)[C@H]1O | 5.8 (≈ 16 µg/mL) | inactive | 2.9 µM | 92.8 µM |
| C#CCOc1cc(OCC#C)cc(C(=O)NCCOc2cc(OCCNC(=O)c3cc(OCC#C)cc(OCC#C)c3)cc(C(=O)NCCCOCCOCCOCCCNC(=O)[C@H]3NC(=O)[C@H]4NC(=O)[C@H](NC(=O)[C@@H]5NC(=O)[C@H](CC(N)=O)NC(=O)[C@H](NC(=O)[C@@H](CC(C)C)NC)[C@H](O)c6ccc(c(Cl)c6)Oc6cc5cc(c6O[C@@H]5O[C@H](CO)[C@@H](O)[C@H](O)[C@H]5O[C@H]5C[C@](C)(N)[C@H](O)[C@H](C)O5)Oc5ccc(cc5Cl)[C@H]4O)c4ccc(O)c(c4)-c4c(O)cc(O)cc43)c2)c1 | 1.6 (≈ 3.68 µg/mL) | 3.2 µM (≈ 7.35 µg/mL) |  |  |
| COC(=O)c1cc(OCCNC(=O)c2cc(OCc3cn(CCCNC(=O)CC[C@H](NC(=O)c4cc5cc(c4)CN(C(=O)[C@H](Cc4c[nH]cn4)NC(C)=O)CCCN(C(=O)[C@H](Cc4c[nH]cn4)NC(C)=O)CCCN(C(=O)[C@H](Cc4c[nH]cn4)NC(C)=O)C5)C(N)=O)nn3)cc(OCc3cn(CCCNC(=O)CC[C@H](NC(=O)c4cc5cc(c4)CN(C(=O)[C@H](Cc4c[nH]cn4)NC(C)=O)CCCN(C(=O)[C@H](Cc4c[nH]cn4)NC(C)=O)CCCN(C(=O)[C@H](Cc4c[nH]cn4)NC(C)=O)C5)C(N)=O)nn3)c2)cc(OCCNC(=O)c2cc(OCc3cn(CCCNC(=O)CC[C@@H](NC(=O)c4cc5cc(c4)CN(C(=O)[C@H](Cc4c[nH]cn4)NC(C)=O)CCCN(C(=O)[C@@H](Cc4c[nH]cn4)NC(C)=O)CCCN(C(=O)[C@H](Cc4c[nH]cn4)NC(C)=O)C5)C(N)=O)nn3)cc(OCc3cn(CCCNC(=O)CC[C@@H](NC(=O)c4cc5cc(c4)CN(C(=O)[C@H](Cc4c[nH]cn4)NC(C)=O)CCCN(C(=O)[C@@H](Cc4c[nH]cn4)NC(C)=O)CCCN(C(=O)[C@H](Cc4c[nH]cn4)NC(C)=O)C5)C(N)=O)nn3)c2)c1 |  |  | inactive | inactive |
